Measurements as given in patent US20060210614A1, “Method of treatment of a metabolic disease using intranasal administration of exendin peptide” (Nastech Pharmaceutical Company Inc., priority 2003, published 2006).
Where two headings read alike, the source gives them in different places.

Experiments:
[1] = Physical stability (clarity, absorbance at 630 nm) after storage at 5° C.
Protocol: In vitro optimization of the exenatide formulation included a preservatives screen. Physical stability after storage at 5° C. was measured for all formulations tested in vitro. Exenatide formulations were placed in 1 cc glass vials and closed with trifoil lined caps and stored at 5° C. for at least two weeks. Physical stability was monitored by measuring clarity. Clarity of a formulation was determined by measuring absorbance at 630 nm, using the μQuant optical density plate reader for each formulation at days 0, 7, and 14. A 200 μL volume from each vial was placed in a 96-well plate and read against a background of water.
Varying concentrations of sodium benzoate (NaBenz) and benzalkonium chloride (BAK), were screened for their effect on physical stability of the three formulations used in in vivo studies. Sodium benzoate was added at […], while BAK was tested at 0.2, 1.0, 2.0, and 4.0 mg/mL. To prepare the samples, varying amounts of stock solutions of the two preservatives were added to the three prepared formulations dosed in the PK study. […] The resulting formulations were stored at 5° C. for 5.5 weeks. Physical stability was monitored by measuring the absorbance of the solution at 630 nm.
Sodium benzoate was added at concentrations of 1.0 to 5.0 mg/mL, while BAK was tested at 0.05, 0.075, and 0.1 mg/mL. To prepare the samples, varying amounts of stock solutions of the two preservatives were added to the formulations prepared in the PK study and the pH was adjusted to 4.5 with HCl as necessary. The resulting formulations were stored at 5° C. for 4 weeks. Physical stability was monitored by measuring the absorbance of the solution at 630 nm.

[2] = system: normal, human-derived tracheal/bronchial epithelial cells (EpiAirway™ Tissue Model); conditions: exenatide formulation containing the excipient; LDH and MTT
Protocol: The amount of cell death was assayed by measuring the loss of lactate dehydrogenase (LDH) from the cells using a CytoTox 96 Cytoxicity Assay Kit (Promega Corp., Madison, Wis.). Fresh, cell-free culture medium was used as a blank. 50 μl harvested media (stored at 4° C.) was loaded in a 96-well plate. Substrate Solution (50 μl) was added to each well and the plates were incubated for thirty (30) minutes at ambient temperature in the dark. Following incubation, 50 μl of Stop Solution was added to each well and the reaction was monitored at A490 using an optical density plate reader. Media alone applied to the apical side served as a negative control while triton X served as the positive control for the LDH assay.
The optical density of the samples was measured at A550 on an optical density plate reader (Molecular Devices, Palo Alto, Calif.). Media alone applied to the apical side served as a […] for the MTT assay.
A second round of studies, series B, systematically screened several excipients for their potential to enhance exenatide permeation to a greater degree than the Me-β-CD, DDPC, EDTA, and gelatin combinations. […] As with series A formulations, each formulation was evaluated for exenatide permeation, ability to reduce TER while not adversely affecting cell viability, and formulation physical stability.

[3] = aqueous solution at physiologic pH; cited from earlier work
[4] = system: normal, human-derived tracheal/bronchial epithelial cells (EpiAirway™ Tissue Model); assay: Transepithelial Electrical Resistance (TER) measurements using an in vitro nasal epithelial model; assay type: cell-based; conditions: 60 minute exposure
Source text: The cell line MatTek Corp. (Ashland, Mass.) was used as the source of normal, human-derived tracheal/bronchial epithelial cells (EpiAirway™ Tissue Model). The cells are highly differentiated and retain all the properties of respiratory epithelial tissue. The cells were provided as inserts grown to confluence on Millipore Milicell-CM filters comprised of transparent hydrophilic Teflon (PTFE). […] TER measurements were accomplished using the Endohm-12 Tissue Resistance Measurement Chamber connected to the EVOM Epithelial Voltohmmeter (World Precision Instruments, Sarasota, Fla.) with the electrode leads. The electrodes and a tissue culture blank insert were equilibrated for at least twenty (20) minutes in phosphate buffered solution with the power off prior to checking calibration. The background resistance was measured with 1.5 mL media in the Endohm tissue chamber and 300 μL media in a blank Millicell-CM insert. […] The background resistance of the blank insert was 5-12 ohms.
TER was measured before and after the sixty (60) minute incubation. […] After the 60 minute incubation with test samples, 200 μL of fresh media was gently added to the apical surface of each test sample insert and final TER was measured for each insert. […] Resistance is expressed as follows: (resistance measured−blank)×0.6 cm^2.

[5] = system: epithelial tissue barrier (EpiAirway™ Tissue Model); assay: In vitro permeation of Fluorescein-Exendin-4 across the cellular barrier; conditions: for Fold increase in exenatide permeation over AKL-225-126-2: one hour incubation, full dose volume
Source text: A standard curve was generated over the relevant quantitation range. […] Initial studies focused on optimizing the concentrations of Me-β-CD, DDPC, EDTA and gelatin to enhance exenatide permeation across an epithelial tissue layer.

[6] = anesthetized rats, cited from earlier work
[7] = system: aminopeptidases; conditions: cited from earlier work
[8] = 5° C. (refrigerated), at least two weeks, absorbance at 630 nm

| Molecule | Toxicity / cell viability (in words) [2] | Physical stability / clarity (in words) [1, 8] | further results |
| --- | --- | --- | --- |
| CCCCCCCCCCCCC[N+](C)(C)Cc1ccccc1 [benzalkonium chloride (BAK), benzalkonium chloride] | decreasing cell viability with increasing BAK concentration | – | Physical stability / clarity (in words) [1]: remained physically stable for two weeks at 5 °C |
| NCCN(CCN)/[N+]([O-])=N/O [diethylenetriamine/NO] | – | – | Rate (time) of NO release [3]: approximately 20 hours |
| CCCCCCCC(=O)[O-].[Na+] [sodium caprylate] | toxic at 20 mM with Me-β-CD and EDTA | physical instability in the absence of Me-β-CD | – |
| CCCCCCCCO[C@@H]1O[C@H](CO)[C@H](O)[C@H](O)[C@H]1O [galactopyranoside, n-Octyl-β-D-galactopyranoside] | toxic at 10 mg/mL | – | – |
| OC[C@H]1O[C@@H]2O[C@H]3[C@H](O)[C@@H](O)[C@@H](O[C@H]4[C@H](O)[C@@H](O)[C@@H](O[C@H]5[C@H](O)[C@@H](O)[C@@H](O[C@H]6[C@H](O)[C@@H](O)[C@@H](O[C@H]7[C@H](O)[C@@H](O)[C@@H](O[C@H]8[C@H](O)[C@@H](O)[C@@H](O[C@H]1[C@H](O)[C@H]2O)O[C@@H]8CO)O[C@@H]7CO)O[C@@H]6CO)O[C@@H]5CO)O[C@@H]4CO)O[C@@H]3CO [β-cyclodextrin] | – | became turbid at refrigerated conditions | – |
| triton X | – | – | Effect on TER (in words) [4]: lowest possible TER |
| hydroxypropyl-β-cyclodextrin [HP-β-CD] | – | – | Exenatide permeation across the tissue barrier (in words) ([5]; excipient screen, compared with AKL-225-126-2 or control without enhancers): did not increase permeation significantly |
| Dodecanoylsucrose | toxic at 10 mg/mL | – | Fold increase in exenatide permeation over AKL-225-126-2 [5]: not more than 1.5 fold |
| O=C([O-])c1ccccc1.[Na+] [sodium benzoate] | – | 2 mg/mL of more sodium benzoate became turbid within 14 days at 5 °C | – |
| CCCCCCCCCC(=O)[O-].[Na+] [sodium caprate] | low cell viability at 50 mM alone | physical instability in the absence of Me-β-CD | – |
| O=C(O)CN(CCN(CC(=O)O)CC(=O)O)CC(=O)O [EDTA, ethylene diamine tetraacetic acid] | at 10 mg/mL EDTA, cell viability began to decrease | – | – |
| CCCCCCCC/C=C\CCCCCCCC(=O)O [oleic acid] | 3 mg/mL oleic acid resulted in lowered cell viability | – | – |
| CCCCCCCCO[C@H]1O[C@H](CO)[C@@H](O)[C@H](O)[C@H]1O [Octyl-α-glucopyranoside] | – | – | Fold increase in exenatide permeation over AKL-225-126-2 [5]: not more than 1.5 fold |
| CCCCCCCCC(=O)OC[C@H](COP(=O)([O-])OCC[N+](C)(C)C)OC(=O)CCCCCCCC [dinonanoyl glycero phosphatidylcholine, Di Nonanoyl Glycero Phosphatidylcholine (9:0)] | – | becoming turbid in less than two weeks at refrigerated conditions | – |
| dimethyl-β-cyclodextrin [DMe-β-CD] | more toxic to the cells than Me-β-CD | – | Fold increase in exenatide permeation over AKL-225-126-2 [5]: 1.5 fold |
| C[C@H](CCC(=O)NCC(=O)[O-])[C@H]1CC[C@H]2[C@@H]3[C@H](O)C[C@@H]4C[C@H](O)CC[C@]4(C)[C@H]3C[C@H](O)[C@]12C.[Na+] [Sodium glycocholate, sodium glycocholate] | – | physically instable at high concentrations | – |
| CCCCCCCCCCCCCCCC(=O)OC(CC(=O)[O-])C[N+](C)(C)C (racemic) [Palmitoyl-DL-carnitine, palmitoyl-DL-carnitine] | toxic at high concentrations | physically instable without Me-β-CD | – |
| CCN(CC)/[N+]([O-])=N/O.CCNCC [diethylamine/NO] | – | – | Rate (time) of NO release [3]: < 3 min |
| human growth hormone: human growth hormone given nasally to anesthetized rats, without and with N-acetyl-L-cysteine | – | – | Nasal bioavailability of human growth hormone ([6]; with N-acetyl-L-cysteine (ACS)): 12.2%; Nasal bioavailability of human growth hormone ([6]; without N-acetyl-L-cysteine): 7.5% |
| CCCCCCCCO[C@@H]1O[C@H](CO)[C@@H](O[C@H]2O[C@H](CO)[C@@H](O)[C@H](O)[C@H]2O)[C@H](O)[C@H]1O [n-octyl-β-D-maltopyranoside, n-Octyl-β-D-maltopyranoside] | – | – | Fold increase in exenatide permeation over AKL-225-126-2 [5]: not more than 1.5 fold |
| CCCCCCCC/C=C\CCCCCCCC(=O)OCCOCC(OCCO)C1OCC(OCCO)C1OCCO (stereo not drawn) [Tween-80] | – | – | Exenatide permeation across the tissue barrier (in words) ([5]; human, 1 h): failed to enhance exenatide permeation to the same extent as formulation AKL-225-126-2 |
| CC(C)CC(N)B(O)O (stereo not drawn) [boro-leucine] | – | – | Times more effective in enzyme inhibition than bestatin [7]: more than 100 times; Times more effective in enzyme inhibition than puromycin [7]: more than 1000 times |
